Measurements: patent publication US8765729B2, “Cancer therapy” (Aeolus Sciences, Inc., priority 2001, dated 2014)

Assays:
[1] = system: R3230 mammary adenocarcinoma cells in Z-chambers; assay: Tumor development in Z-chambers; format: in vivo, Fisher-344 rats; conditions: 6 mg/kg i.p. 24 hours before implantation of 2.5 mil./ml cells
Protocol: FIG. 4. Animals were pretreated with different SOD mimetics (6 mg/kg i.p.) 24 hours before implantation of 2.5 mil./ml R3230 mammary adenocarcinoma cells in Z-chambers.
These chambers are constructed from customized plexi-glass rings with internal diameter of 10 mm and have a pore on the side. The two open surfaces are covered by nylon mesh (pore size 180 microns, Millipore, Mass.) and glued to the rings. Fibrinogen (Human fibrinogen, plasminogen depleted, CalBiochem) is prepared in DMEM, Gibco BRL) and a concentration of 4-5 mg/ml is utilized for the studies. Although the Fischer rats used in the study are immune competent, this purified batch of fibrinogen has been recognized to be very well conserved across species lines. It has already been shown that early angiogenic response to human fibrinogen is very similar to rat fibrinogen in fibrin gel chambers. The two different types of fibrinogen have also been tested in the Z-Chambers and no difference was found in angiogenic and healing response. Human fibrinogen was used.
The Fibrin Z-Chambers have fibrinogen solution poured inside the chamber through the pore and followed by 2 units of thrombin. […]
The Z-Chambers were harvested on day 1 or 12 post surgery. […] The depth of either the tumor tissue (tumor growth) or granulation tissue (wound healing) was measured with calipers on the 4×6 inch print. […]

[2] = system: oral mucositis induced by acute radiation; assay: Oral mucositis induced by acute radiation in hamsters; format: in vivo
Protocol: Forty hamsters were given an acute radiation dose directed to their oral mucosa. Test materials will be applied by injection, or topically (three times per day) beginning the day before radiation and continuing until day 20. Mucositis were evaluated on alternate days beginning on day 6 (day of radiation=day 0) and continuing until the conclusion of the experiment on day 28.
Forty (40) hamsters were used. The hamsters were randomized into five (5) groups of eight (8) animals each. Each group was assigned a different treatment of 0.2 ml tid as follows:
Parameters measured included the mucositis score, weight change and survival. For the evaluation of mucositis, the animals were anesthetized with inhalation anesthetics ([…] or Halothane), and the left pouch everted. Mucositis was scored both clinically during the laboratory portion of the study and in a blinded manner (at the conclusion of the study). Clinical scoring was performed by visual comparison to a validated photographic scale, ranging from 0 for normal, to 5 for severe ulceration.
• 0 Pouch completely healthy. No erythema or vasodilation • 1 Light to […] erythema and vasodilation. No erosion of mucosa • 2 Severe erythema and vasodilation. Erosion of superficial aspects of mucosa leaving denuded areas. Decreased stippling of mucosa. • 3 Formation of off-white ulcers in one or more places. Ulcers may have a yellow/gray due to pseudomembrane. Cumulative size of ulcers should equal about ¼ of the pouch. Severe erythema and vasodilation. • 4 Cumulative seize of ulcers should equal about ½ of the pouch. Loss of pliability. Severe erythema and vasodilation. • 5 Virtually all of pouch is ulcerated. Loss of pliability (pouch can only partially be extracted from mouth) A score of 1-2 is considered to represent a mild stage of the disease, whereas a score 3-5 is considered to indicate moderate to severe mucositis. Results
Chi-square analysis of the total number of days the animals in each group spent with a score of three or more. This statistic is a measure of severity of ulceration, a clinically important outcome. Significant efficacy is indicated in red.

[3] = SOD activity (cytochrome C method); format: biochemical
Text: FIGS. 1A-1H show the structures of certain generic and specific definitions of compounds suitable for use in the present invention. With reference to FIG. 1C, mimetics of the invention can be of Formula I or Formula II, or dimeric forms thereof, an example of a dimeric form being shown in FIG. 1D. With reference to FIG. 1H, the SOD activities of certain of the depicted compounds are shown in Table 1 (as measured by the cytochrome C method): […]

[4] = high dose IP (1 mg/ml tid), total days 192
[5] = high dose topical (1 mg/ml tid), total days 192
[6] = low dose IP (0.25 mg/ml tid), total days 192
[7] = low dose topical (0.25 mg/ml tid), total days 182

Compound: CCn1cc[n+](CC)c1-c1c2nc(c(-c3n(CC)cc[n+]3CC)c3ccc([nH]3)c(-c3n(CC)cc[n+]3CC)c3nc(c(-c4n(CC)cc[n+]4CC)c4ccc1[nH]4)C=C3)C=C2.[Mn+3] [Compound 10150, manganese(III)tetrakis(N-diethylimidazolium-2,5-yl)porphyrin]
- tumor development [1]: Significant (p<0.01) inhibition of tumor development
- Percent Days > 3 ([2]; INC-01, 0.25 mg/ml IP, control 45.8, P 0.001): 18.8%
- Percent Days > 3 ([2]; INC-01, 0.25 mg/ml Topical, control 45.8, P 0.953): 45.6%
- Percent Days > 3 ([2]; INC-01, 1 mg/ml IP, control 45.8, P 0.005): 31.3%
- Percent Days > 3 ([2]; INC-01, 1 mg/ml Topical, control 45.8, P 0.148): 38%
- Percent Days > 3 ([2]; INC-02, 0.25 mg/ml IP, control 43.3, P 0.004): 28.6%
- Percent Days > 3 ([2]; INC-02, 1.5 mg/ml IP, control 43.3, P 0.002): 27.6%
- Percent Days > 3 ([2]; INC-02, 1.5 mg/ml Topical, control 43.3, P 0.298): 37.5%
- Percent Days > 3 ([2]; INC-02, 5 mg/ml Topical, control 43.3, P 0.002): 27.6%
- Percent Days > 3 ([2]; INC-03, 1 mg/ml IP, control 33.3, P 0.113): 38.1%
- Percent Days > 3 ([2]; INC-04, 0.25 mg/ml IP, control 43.9, P 0.485): 47.3%
- Percent Days > 3 ([2]; INC-05, 0.25 mg/ml IP, control 68.8, P 0.001): 42.1%
- Percent Days > 3 ([2]; INC-05, 1.5 mg/ml IP, control 68.8, P 0.001): 33.3%
- reduction in the percent of days with Mucositis Scores ≧3 ([2]; IP, 0.2 ml of 0.25 mg/ml TID, 1.5 mg/kg/day): 59%
- Days < 3 [2, 4]: 132
- Days >= 3 [2, 4]: 60
- % Days >= 3 ([2]; high dose IP, control 45.8, P 0.005): 31.3%
- Days < 3 [2, 5]: 119
- Days >= 3 [2, 5]: 73
- % Days >= 3 ([2]; high dose topical, control 45.8, P 0.148): 38.0%
- mucositis severity ([2]; high dose topical, not statistically significant): tended to reduce mucositis severity
- Days < 3 [2, 6]: 156
- Days >= 3 [2, 6]: 36
- % Days >= 3 ([2]; low dose IP, control 45.8, P <0.001): 18.8%
- Days < 3 [2, 7]: 99
- Days >= 3 [2, 7]: 83
- % Days >= 3 ([2]; low dose topical, control 45.8, P 0.953): 45.6%
- severity of mucositis associated with radiation therapy ([2]; most evident with IP administration): markedly reduces the severity of mucositis
- incidence of severe mucositis ([2]; topical dosing, both concentrations): not in either group treated by topical dosing
- SOD activity [3]: 14,789 U/mg

Compound: CuZn-SOD: dimeric copper- and zinc-containing enzyme found in the cytosol of all cells
- SOD activity [3]: 2,200 U/mg
